According to PMC10620030, “New Organotin (IV) Compounds Derived from Dehydroacetic Acid and Thiosemicarbazides: Synthesis, Rational Design, Cytotoxic Evaluation, and Molecular Docking Simulation” (Bioinorganic Chemistry and Applications, 2023):
“Also recorded” adds a separate entry of the source.

Experiments:
[1] = tested on: COS-7 (African green monkey kidney fibroblast) normal cell line; experiment: sulforhodamine B (SRB) cytotoxicity assay on normal cell line COS-7; type: cell-based; details: for Non-Cytotoxic concentration on normal cell line COS-7: nondetectable effect on cell proliferation; for IC50: normal cell line, SRB assay, mean ± SE of three or four assays
Experimental: (§1) The compounds were screened in vitro against two cancer cell lines, MCF-7 and MDA-MB-231 (human mammary adenocarcinoma), and the normal cell line Cos-7 (African green monkey kidney fibroblast). The MCF-7 and MDA-MB231 cell lines were cultured in RPMI-1640 medium, and Cos-7 was cultured in DMEM (Dulbecco's Modified Eagle's Medium) and supplemented with 10% of fetal bovine serum, 2 mM L-glutamine, 10000 units/ml penicillin G sodium, 10000 μg/ml streptomycin sulfate, 25 μg amphotericin B (Gibco), and 1% of nonessential amino acids (Gibco). The cell lines were maintained at 37°C in a humidified atmosphere with 5% CO2. The viability of the cells used in the experiments exceeded 95%, as determined with trypan blue.
(§2) The human tumor cytotoxicity was assessed using the protein-binding dye sulforhodamine B (SRB) in a microculture assay to measure the cell growth as described by. The human tumors and normal cells were treated with the complexes. The cells were removed from the tissue culture flask by treatment with trypsin and diluted with fresh media from the cell suspension to 100 μl containing 5000–10000 cells per well. The cells were then pipetted into 96 microliter plates (Costar) and incubated at 37°C for 24 h in a 5% CO2 atmosphere. Subsequently, 100 μl of a solution of the corresponding organotin complex at different concentrations was added to each well. The cultures were exposed to the compounds for 48 h. After the incubation period, the cells were fixed to the plastic substratum by the addition of 50 μl of cold trichloroacetic acid (50% aqueous).
(§3) The plates were incubated at 4°C for one hour, washed with tap water, and air-dried. The addition of […] stained trichloroacetic acid-fixed cells. The free SRB was removed by washing with 1% aqueous acetic acid, the plates were air-dried, and the dyed was solubilized by adding ten mM unbuffered Tris base (100 μl). The plates were placed on a shaker for 10 min, and the absorption was measured at 515 nm using an ELISA plate reader (Bio-Tex Instruments).

[2] = stability in DMSO-d6 by 1H NMR; type: physicochemical; details: DMSO-d6 solution, up to 72 h
Experimental: The stability of the complexes in biological media was tested to evaluate their cytotoxicity. The compounds were dissolved in a DMSO-Tris-HCl buffer (3 : 7 v/v) over a 72 h period, and the UV-Vis spectra were recorded at 0 and 72 h. ^1H NMR spectra in DMSO-d6 of complexes 1a, 1d, 2a, 2d, 3a, and 3d were also acquired at 0, 24, 56, and 72 h.

[3] = tested on: MCF-7 (human mammary adenocarcinoma) cell line; experiment: sulforhodamine B (SRB) cytotoxicity assay on MCF-7; type: cell-based; details: mean ± SE of three or four assays, incubation 72 h, 48 h exposure
Experimental: as §1
as §2, with “The cultures were exposed to the compounds for 48 h.” left out
as §3

MDA-MB-231 cell line = experiment: morphological changes, Giemsa stain light microscopy, MDA-MB-231; type: cell-based, human; details: 48 h treatment
Experimental: (§4) To evaluate the morphological alterations induced by organotin(IV) complexes, MCF-7 and MDA-MB231 cell lines were cultured on a tissue culture flask with or without different treatments for 48 h. After incubation, cells were washed two times with PBS, fixed with methanol 100%, and stained with Wright-Giemsa (Sigma-Aldrich, WG32-1L). The culture flasks were examined under an Olympus IX71 Inverted Fluorescence Phase Contrast Microscope. The images were recorded with a Nikon Coolpix 4300 digital camera using the 20x objectives and analyzed by ImageJ software.

[4] = tested on: MDA-MB-231 (human mammary adenocarcinoma) cell line; experiment: sulforhodamine B (SRB) cytotoxicity assay on MDA-MB-231; type: cell-based; details: mean ± SE of three or four assays, incubation 72 h, 48 h exposure
Experimental: as §1
as §2, with “The cultures were exposed to the compounds for 48 h.” left out
as §3

MCF-7 cell line = experiment: morphological changes, Giemsa stain light microscopy, MCF-7; type: cell-based, human; details: 48 h treatment
Experimental: as §4

SMILES	Non-Cytotoxic concentration on normal cell line COS-7 [1] [µM]	IC50 [1] [nM]	stability by 1H NMR [2]	IC50 [3] [nM]	morphological alterations MDA-MB-231 (MDA-MB-231 cell line)	IC50 [4] [nM]	morphological alterations MCF-7 (MCF-7 cell line)
CCC[CH2][Sn]1([CH2]CCC)[O]c2cc(C)oc(=O)c2C(C)=NN=C(N)[S]1 [Compound 1a, 4-Amino-2,2-dibutyl-7,10-dimethylpyrane[3,4-h]-1,3,5,6,2-oxathiadiazastannonin-8-one]	0.02	490 ± 30	good stability	380 ± 30	Cell density decreased	120 ± 10	
CC1=NN=C(CN)[S][Sn]([c]2ccccc2)([c]2ccccc2)[O]c2cc(C)oc(=O)c21 [Compound 2c, 2,2-Diphenyl-7,10-dimethyl-4-(aminomethyl) Pyrane[3,4-h]-1,3,5,6,2-oxathiadiazastannonin-8-one]	0.02	1150 ± 100		1080 ± 10		1020 ± 30	
CC1=NN=C(N)[S][Sn]([CH]2CCCCC2)([CH]2CCCCC2)[O]c2cc(C)oc(=O)c21 [Compound 1d, 4-Amino-2,2-dicyclohexyl-7,10-dimethylpyrane[3,4-h]-1,3,5,6,2-oxathiadiazastannonin-8-one]	0.01	180 ± 6	good stability	203 ± 8		119 ± 3	
CC1=NN=C(Nc2ccccc2)[S][Sn]([CH]2CCCCC2)([CH]2CCCCC2)[O]c2cc(C)oc(=O)c21 [Compound 3d, 2,2-Dicyclohexyl-7,10-dimethyl-4-(aminophenyl) Pyrane[3,4-h]-1,3,5,6,2-oxathiadiazastannonin-8-one]	0.01	160 ± 20		160 ± 6	chromatin condensation	70 ± 5	
CCCCCCC[CH2][Sn]1([CH2]CCCCCCC)[O]c2cc(C)oc(=O)c2C(C)=NN=C(N)[S]1 [Compound 1b, 4-Amino-2,2-dioctyl-7,10-dimethylpyrane-[3,4-h]-1,3,5,6,2-oxathiadiazastannonin-8-one]	0.2	12200 ± 300		8650 ± 700		11000 ± 1500	
CCCCCCC[CH2][Sn]1([CH2]CCCCCCC)[O]c2cc(C)oc(=O)c2C(C)=NN=C(Nc2ccccc2)[S]1 [Compound 3b, 2,2-Dioctyl-7,10-dimethyl-4-(aminophenyl) Pyrane[3,4-h]-1,3,5,6,2-oxathiadiazastannonin-8-one]	0.01	1600 ± 200		730 ± 100		540 ± 80	
CC1=NN=C(CN)[S][Sn]([CH2][Si](C)(C)C)([CH2][Si](C)(C)C)[O]c2cc(C)oc(=O)c21 [Compound 2e, 2,2-Bis(trimethylsilyl)methyl-7,10-dimethyl-4-(aminomethyl) Pyrane[3,4-h]-1,3,5,6,2-oxathiadiazastannonin-8-one]	0.01	290 ± 30		150 ± 20		120 ± 8	cytoplasm vacuolization
CC1=NN=C(Nc2ccccc2)[S][Sn]([CH2][Si](C)(C)C)([CH2][Si](C)(C)C)[O]c2cc(C)oc(=O)c21 [Compound 3e, 2,2-Bis(trimethylsilyl)methyl-7,10-dimethyl-4-(aminophenyl) Pyrane[3,4-h]-1,3,5,6,2-oxathiadiazastannonin-8-one]	0.01	250 ± 10		40 ± 2	cytoplasm vacuolization	140 ± 3	Cell density decreased; also recorded: presence of nonadherent cells; also recorded: chromatin condensation and pyknotic nuclei
CC1=NN=C(N)[S][Sn]([CH2][Si](C)(C)C)([CH2][Si](C)(C)C)[O]c2cc(C)oc(=O)c21 [Compound 1e, 4-Amino-2,2-bis(trimethylsilyl)methyl-7,10-dimethylpyrane[3,4-h]-1,3,5,6,2-oxathiadiazastannonin-8-one]	0.01	140 ± 10		180 ± 5		42 ± 8	
CC1=NN=C(N)[S][Sn]([c]2ccccc2)([c]2ccccc2)[O]c2cc(C)oc(=O)c21 [Compound 1c, 4-Amino-2,2-diphenyl-7,10-dimethylpyrane[3,4-h]-1,3,5,6,2-oxathiadiazastannonin-8-one]	0.02	680 ± 50		611 ± 20	Cell density decreased	170 ± 10	
CCC[CH2][Sn]1([CH2]CCC)[O]c2cc(C)oc(=O)c2C(C)=NN=C(CN)[S]1 [Compound 2a, 2,2-Dibutyl-7,10-dimethyl-4-(aminomethyl) Pyrane[3,4-h]-1,3,5,6,2-oxathiadiazastannonin-8-one]	0.01	620 ± 60	good stability	210 ± 40		310 ± 20	
CC1=NN=C(CN)[S][Sn]([CH]2CCCCC2)([CH]2CCCCC2)[O]c2cc(C)oc(=O)c21 [Compound 2d, 2,2-Dicyclohexyl-7,10-dimethyl-4-(aminomethyl) Pyrane[3,4-h]-1,3,5,6,2-oxathiadiazastannonin-8-one]	0.01	280 ± 10	good stability	200 ± 2		87 ± 200	
CCCCCCC[CH2][Sn]1([CH2]CCCCCCC)[O]c2cc(C)oc(=O)c2C(C)=NN=C(NC)[S]1 [Compound 2b, 2,2-Dioctyl-7,10-dimethyl-4-(aminomethyl) Pyrane[3,4-h]-1,3,5,6,2-oxathiadiazastannonin-8-one]	0.2	11600 ± 800		1390 ± 30		3280 ± 80	Cell density decreased
N.N.[Cl][Pt][Cl] [Cisplatin, reference compound]		7170 ± 600		5300 ± 500		27700	
CC1=NN=C(Nc2ccccc2)[S][Sn]([c]2ccccc2)([c]2ccccc2)[O]c2cc(C)oc(=O)c21 [Compound 3c, 2,2-Diphenyl-7,10-dimethyl-4-(aminophenyl) Pyrane[3,4-h]-1,3,5,6,2-oxathiadiazastannonin-8-one]	0.01	250 ± 6		160 ± 10		490 ± 2	
CCC[CH2][Sn]1([CH2]CCC)[O]c2cc(C)oc(=O)c2C(C)=NN=C(Nc2ccccc2)[S]1 [Compound 3a, 2,2-Dibutyl-7,10-dimethyl-4-(aminophenyl) Pyrane[3,4-h]-1,3,5,6,2-oxathiadiazastannonin-8-one]	0.02	340 ± 10	good stability	210 ± 9		100 ± 10	
